Entries after “also recorded” stand apart in the source; their conditions may differ.
Test: Fuchsine staining of free aldehyde groups on fixed, detoxified tissue (observed colour)
Set-up: species or system bovine
Conditions: FIG. 1 samples; detoxified at room temperature about 24 hours; homocysteic acid 1.00% w/v or taurine 0.70% w/v in phosphate buffer pH 7; weaker staining = fewer free aldehyde groups
Procedure: The efficacy of the method described herein, and therefore the occurrence of the reaction between the amino groups of the detoxifying molecule and the aldehyde groups present on the fixed tissue, is evaluated by staining of the aldehyde groups remaining free. The greater the staining intensity, the more numerous are the free aldehyde groups and, on the contrary, the weaker (or absent) the staining, the less numerous (or absent) are the free aldehyde groups present on the detoxified tissue.
The detoxification step was conducted at room temperature (20° C.), 40° C. and 50° C., for a period of time of 24 hours, using about 200 ml of solution for each tissue.
a second control sample (FIG. 1B) fixed with glutaraldehyde and detoxified with a solution containing homocysteic acid at a concentration (w/v) of 1.00% in phosphate buffer pH 7;
The tissue samples were immersed in the detoxifying solutions for about 24 hours at room temperature with gentle agitation.
The samples were immersed in the detoxifying solution for about 24 hours with gentle agitation both at room temperature and at 40° C.; the fourth sample detoxified at 50° C. was maintained immersed for 7-8 hours with gentle agitation.
Tissue staining to detect free aldehyde groups uses an acidic solution of rosaniline hydrochloride (fuchsine). […]

N[C@@H](CCS(=O)(=O)O)C(=O)O [homocysteic acid]
Staining observed: less than that of the control sample; also recorded: Violet

Reference: patent US20160158415A1, “METHOD FOR DETOXIFYING A BIOLOGICAL TISSUE” (Sorin Group Italia S.r.l., priority 2010, published 2016)
